Results reported in patent publication US8216614B2 (The Board of Regents of the University of Texas Systems, priority 2005, dated 2012).
Read-outs that look alike come from different tables or passages of the source.

Key:
[1] = cited from earlier work; for bone mineral density: early postmenopausal women, Ruml et al., 1999
[2] = Metabolic study on preventing bone loss: serum calcium, parathyroid hormone, bone turnover markers; format: in vivo, human; conditions: for decline in markers of bone resorption (urinary hydroxyproline, urinary N-telopeptide, serum type 1 collagen C-telopeptide): change from placebo phase; for serum calcium / serum parathyroid hormone: last two days of two-week phase
Method: During the last two days of each two-week phase, serum and 24-hour urine samples were collected for assessment of calcium metabolism, alkali load, and bone turnover markers.
Markers of bone turnover. The effect of treatment on bone resorption (destruction) was evaluated from urinary hydroxyproline, urinary N-telopeptide, and serum type 1 collagen C-telopeptide. These bone-derived substances are called markers of bone resorption, since they are elevated in states of high bone destruction.

[3] = Metabolic study on prevention of kidney stone formation: alkali load, urinary stone risk factors, urinary saturation; format: in vivo, human; conditions: two-week phase, 24-hour urine; for urinary ammonium / net gastrointestinal absorption of alkali: change from placebo phase; for net gastrointestinal absorption of alkali: postmenopausal women, constant diet
Description: A total of eighteen postmenopausal women without kidney stones underwent four phases of study chosen in random order while they were kept on a constant diet in a metabolic ward. […] During last two days of each phase, urine was collected in 24-hour pools for biochemistry and stone risk factors.
Provision of alkali load. […] If an alkali load is delivered, the net gastrointestinal absorption of alkali (calculated from urinary electrolytes) increases and urinary ammonium decreases (as a normal response of kidneys to alkali).

[4] = cited from earlier work

For `O=C([O-])[O-].[Ca+2]` [calcium carbonate], the bone mineral density [1] is given as “only partially effective”.

With `O=C([O-])CC(O)(CC(=O)[O-])C(=O)[O-].O=C([O-])CC(O)(CC(=O)[O-])C(=O)[O-].[Ca+2].[Ca+2].[Ca+2]` [calcium citrate] the “decline in markers of bone resorption (urinary hydroxyproline, urinary N-telopeptide, serum type 1 collagen C-telopeptide)” value [2] was “intermediate”, the serum calcium [2] was “increased slightly” and the serum parathyroid hormone [2] was “significantly decreased”. For the same compound, the urinary ammonium [3] was “slightly but significantly decreased”, the “net gastrointestinal absorption of alkali” value [3] was “marginally increased” and the urinary calcium [3] was “increased”. For the same compound, the urinary citrate [3] was “increased in the same direction”, the urinary oxalate [3] was “decreased significantly” and the “urinary pH” value [3] was “increased marginally”. The “urinary saturation of calcium oxalate” value [3] was “increased marginally”, the urinary citrate ([1]; calcium citrate supplementation, literature) was “modestly increases” and the bone mineral density [1] was “prevent, though not increase”.

In the case of `O=C([O-])CC(O)(CC(=O)[O-])C(=O)[O-].[K+].[K+].[K+]` [potassium citrate], the bone density ([4]; Pak et al., 2001) is given as “increase bone density”, the “calcium loss into urine” value ([4]; Sakhaee et al., 1991) is given as “prevent calcium loss into urine” and the urinary citrate ([4]; literature) is given as “effective in increasing urinary citrate”. For the same compound, the “decline in markers of bone resorption (urinary hydroxyproline, urinary N-telopeptide, serum type 1 collagen C-telopeptide)” value [2] was “least prominent”, the serum calcium [2] was “did not change” and the serum parathyroid hormone [2] was “did not change”. The urinary ammonium [3] was “reduced”, the “net gastrointestinal absorption of alkali” value [3] was “significantly and substantially increased” and the urinary calcium [3] was “decreased”. For the same compound, the urinary citrate [3] was “increased in the same direction”, the urinary oxalate [3] was “unaffected” and the “urinary pH” value [3] was “significantly and substantially rose”. For the same compound, the “urinary saturation of calcium oxalate” value [3] was “declined”.
